From patent US20150315146A1, “USE OF SUBSTITUTED 1-(ARYL ETHYNYL)-, 1-(HETEROARYL ETHYNYL)-, 1-(HETEROCYCLYL ETHYNYL)- AND 1-(CYCLOALKENYLETHYNYL)-BICYCLOALKANOLS AS ACTIVE AGENTS AGAINST ABIOTIC PLANT STRESS” (BAYER CROPSCIENCE AG, priority 2012, published 2015)

Tests used:
Experiment in all cases: Drought stress test on potted crop plants in greenhouse, spray application, efficacy from damage values
Format in all cases: in vivo
Brassica napus (BRSNS) = details: spray at 600 l/ha water, averages from one to three trials
Procedure: (§1) Seeds of monocotyledonous and dicotyledonous crop plants were laid out in sandy loam in wood-fiber pots, covered with soil or sand and cultivated in a greenhouse under good growth conditions. The test plants were treated at the early leaf stage (BBCH10-BBCH13). To assure uniform water supply before commencement of stress, the potted plants were supplied with water by dam irrigation prior to substance application. The compounds according to the invention, formulated in the form of wettable powders (WP), were sprayed onto the green parts of the plants as an aqueous suspension at an equivalent water application rate of 600 l/ha with addition of 0.2% wetting agent (e.g. agrotin). Substance application was followed immediately by stress treatment of the plants. For this purpose, the pots were transferred into plastic inserts in order to prevent them from subsequently drying out too quickly. Drought stress was induced by gradual drying out under the following conditions: “Day”: 14 hours with illumination at 26° C. “Night”: 10 hours without illumination at 18° C. The duration of the respective stress phases was guided mainly by the state of the untreated, stressed control plants and thus varied from crop to crop. It was ended (by re-irrigating and transfer to a greenhouse with good growth conditions) as soon as irreversible damage was observed on the untreated, stressed control plants. In the case of dicotyledonous crops, for example oilseed rape and soya, the duration of the drought stress phase varied between 3 and 6 days, in the case of monocotyledonous crops, for example wheat, barley or corn, between 6 and 11 days. The end of the stress phase was followed by an approx. 5-7-day recovery phase, during which the plants were once again kept under good growth conditions in a greenhouse. In order to rule out any influence of the effects observed by any fungicidal or insecticidal action of the test compounds, it was additionally ensured that the tests proceeded without fungal infection or insect infestation. After the recovery phase had ended, the intensities of damage were analyzed in visual comparison to untreated, unstressed controls of the same age. The intensity of damage was first recorded as a percentage (100%=plants have died, 0%=like control plants). These values were then used to calculate the efficacy of the test compounds (=percentage reduction in the intensity of damage as a result of substance application) by the following formula: [formula] EF: efficacy (%) DVus: damage value of the untreated, stressed control DVts: damage value of the plants treated with test compound In each trial, 3 pots per crop and dosage were treated and evaluated; the resulting efficacies are thus averages. The values in tables A-1 to A-3 below are again averages from one to three independent trials. BRSNS=Brassica napus TRZAS=Triticum aestivum ZEAMX=Zea mays

[1] = test system: Triticum aestivum (TRZAS); details: topical, percentage reduction in the intensity of damage, read-out: EF (TRZAS) efficacy; for pest or weed control at 250 g/ha: dosage 250 g/ha
Procedure: as §1

Zea mays (ZEAMX) = details: percentage reduction in the intensity of damage
Procedure: as §1

Compound	EF (BRSNS): efficacy = percentage reduction in the intensity of damage as a result of substance application (Brassica napus (BRSNS); dosage 250 g/ha) [%]	pest or weed control at 250 g/ha [1] [%]	EF (ZEAMX) efficacy (Zea mays (ZEAMX); dosage 250 g/ha) [%]	EF (ZEAMX) efficacy (Zea mays (ZEAMX); dosage 25 g/ha) [%]	EF (BRSNS): efficacy = percentage reduction in the intensity of damage as a result of substance application (Brassica napus (BRSNS); dosage 25 g/ha) [%]	pest or weed control at 25 g/ha ([1]; dosage 25 g/ha) [%]
CC12CCC(C1)C(C)(C)C2(O)C#Cc1ccccc1NS(C)(=O)=O (stereo not drawn) [I.1-88]	>5	–	–	–	–	–
COC(=O)c1cc(C)ccc1C#CC1(O)CC2CCC1C2 (stereo not drawn) [I.21-33]	>5	> 5	>5	–	–	–
CC(=O)Oc1ccccc1C#CC1(O)C2(C)CCC(C2)C1(C)C (stereo not drawn) [I.1-79]	>5	> 5	–	>5	–	–
CC12CCC(C1)C(C)(C)C2(O)C#Cc1ccccc1CC#N (stereo not drawn) [I.1-74]	>5	> 5	>5	–	–	–
CC12CCC(C1)C(C)(C)C2(O)C#Cc1ccccc1F (stereo not drawn) [I.1-1]	–	> 5	>5	–	>5	–
COC(=O)c1ccccc1C#CC1(O)C2CCC(C2)C12CC2 (stereo not drawn) [I.29-26]	–	–	–	–	–	> 5
COC(=O)c1ccccc1C#CC1(O)C2(C)CCC(C2)C1(C)C (stereo not drawn) [I.1-116]	–	> 5	–	>5	>5	–
COC(=O)c1ccccc1C#CC1(O)C(C)CCC2C1C2(C)C (stereo not drawn) [I.35-26]	–	> 5	>5	–	–	–
COC(=O)c1ccccc1C#CC1(O)C2CC3CC(C2)CC1C3 (stereo not drawn) [I.19-30]	–	> 5	–	–	>5	–
